In PubChem BioAssay (NCI):
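Dose response: 5 concentrations. Exposure: 48 h. Format: 96-well plates. Endpoint: linear interpolation; highest concentration if not reached. TGI: total growth inhibition.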

Assays:
Test in all cases: NCI tumour cell line growth inhibition, 48 h
786-0 renal = test system: 786-0 renal
A498 renal = test system: A498 renal
A549 NSCLC = test system: A549 NSCLC
ACHN renal = test system: ACHN renal
CAKI-1 renal = test system: CAKI-1 renal
COLO 205 colon = test system: COLO 205 colon
DLD-1 colon = test system: DLD-1 colon
DMS 114 small cell lung = test system: DMS 114 small cell lung
DMS 273 small cell lung = test system: DMS 273 small cell lung
EKVX NSCLC = test system: EKVX NSCLC
HCC-2998 colon = test system: HCC-2998 colon
HCT-116 colon = test system: HCT-116 colon
HCT-15 colon = test system: HCT-15 colon
HOP-18 NSCLC = test system: HOP-18 NSCLC
HOP-62 NSCLC = test system: HOP-62 NSCLC
HT29 colon = test system: HT29 colon
IGROV1 ovarian = test system: IGROV1 ovarian
KM12 colon = test system: KM12 colon
KM20L2 colon = test system: KM20L2 colon
LXFL 529 NSCLC = test system: LXFL 529 NSCLC
M14 melanoma = test system: M14 melanoma
M19-MEL melanoma = test system: M19-MEL melanoma
MALME-3M melanoma = test system: MALME-3M melanoma
NCI-H226 lung = test system: NCI-H226 lung
NCI-H23 lung = test system: NCI-H23 lung
NCI-H460 lung = test system: NCI-H460 lung
NCI-H522 lung = test system: NCI-H522 lung
OVCAR-3 ovarian = test system: OVCAR-3 ovarian
OVCAR-4 ovarian = test system: OVCAR-4 ovarian
OVCAR-5 ovarian = test system: OVCAR-5 ovarian
RPMI-8226 leukemia = test system: RPMI-8226 leukemia
RXF 393 renal = test system: RXF 393 renal
RXF-631 renal = test system: RXF-631 renal
SF-268 CNS = test system: SF-268 CNS
SF-295 CNS = test system: SF-295 CNS
SF-539 CNS = test system: SF-539 CNS
SK-MEL-2 melanoma = test system: SK-MEL-2 melanoma
SK-MEL-28 melanoma = test system: SK-MEL-28 melanoma
SK-OV-3 ovarian = test system: SK-OV-3 ovarian
SN12C renal = test system: SN12C renal
SNB-19 CNS = test system: SNB-19 CNS
SNB-75 CNS = test system: SNB-75 CNS
SNB-78 CNS = test system: SNB-78 CNS
SW-620 colon = test system: SW-620 colon
U251 CNS = test system: U251 CNS
UACC-257 melanoma = test system: UACC-257 melanoma
UACC-62 melanoma = test system: UACC-62 melanoma
UO-31 renal = test system: UO-31 renal
CCRF-CEM leukemia = test system: CCRF-CEM leukemia
HL-60(TB) leukemia = test system: HL-60(TB) leukemia
HOP-92 NSCLC = test system: HOP-92 NSCLC
K-562 leukemia = test system: K-562 leukemia
LOX IMVI melanoma = test system: LOX IMVI melanoma
MOLT-4 leukemia = test system: MOLT-4 leukemia
OVCAR-8 ovarian = test system: OVCAR-8 ovarian
TK-10 renal = test system: TK-10 renal
SK-MEL-5 melanoma = test system: SK-MEL-5 melanoma
SR leukemia = test system: SR leukemia

Compound: Cc1ccc(S(=O)(=O)N/N=C(/CC(=O)c2c(C)n([O-])c3ccccc3[n+]2=O)C(=O)Nc2ccc(C)c(C)c2)cc1
- TGI (786-0 renal): > 100 µM
- TGI (A498 renal): > 100 µM
- TGI (A549 NSCLC): > 100 µM
- TGI (ACHN renal): > 100 µM
- TGI (CAKI-1 renal): > 100 µM
- TGI (COLO 205 colon): > 100 µM
- TGI (DLD-1 colon): > 100 µM
- TGI (DMS 114 small cell lung): 67.2 µM
- TGI (DMS 273 small cell lung): > 100 µM
- TGI (EKVX NSCLC): > 100 µM
- TGI (HCC-2998 colon): > 100 µM
- TGI (HCT-116 colon): > 100 µM
- TGI (HCT-15 colon): > 100 µM
- TGI (HOP-18 NSCLC): > 100 µM
- TGI (HOP-62 NSCLC): > 100 µM
- TGI (HT29 colon): > 100 µM
- TGI (IGROV1 ovarian): > 100 µM
- TGI (KM12 colon): > 100 µM
- TGI (KM20L2 colon): > 100 µM
- TGI (LXFL 529 NSCLC): > 100 µM
- TGI (M14 melanoma): > 100 µM
- TGI (M19-MEL melanoma): 42.6 µM
- TGI (MALME-3M melanoma): > 100 µM
- TGI (NCI-H226 lung): > 100 µM
- TGI (NCI-H23 lung): > 100 µM
- TGI (NCI-H460 lung): > 100 µM
- TGI (NCI-H522 lung): > 100 µM
- TGI (OVCAR-3 ovarian): 63.1 µM
- TGI (OVCAR-4 ovarian): > 100 µM
- TGI (OVCAR-5 ovarian): > 100 µM
- TGI (RPMI-8226 leukemia): > 100 µM
- TGI (RXF 393 renal): > 100 µM
- TGI (RXF-631 renal): > 100 µM
- TGI (SF-268 CNS): > 100 µM
- TGI (SF-295 CNS): > 100 µM
- TGI (SF-539 CNS): > 100 µM
- TGI (SK-MEL-2 melanoma): > 100 µM
- TGI (SK-MEL-28 melanoma): > 100 µM
- TGI (SK-OV-3 ovarian): > 100 µM
- TGI (SN12C renal): > 100 µM
- TGI (SNB-19 CNS): > 100 µM
- TGI (SNB-75 CNS): > 100 µM
- TGI (SNB-78 CNS): > 100 µM
- TGI (SW-620 colon): > 100 µM
- TGI (U251 CNS): > 100 µM
- TGI (UACC-257 melanoma): > 100 µM
- TGI (UACC-62 melanoma): > 100 µM
- TGI (UO-31 renal): > 100 µM

Compound: C[N+]1(C)C/C(=C/c2ccc(F)cc2)C(=O)/C(=C\c2ccc(F)cc2)C1
- TGI (786-0 renal): > 100 µM
- TGI (A498 renal): > 100 µM
- TGI (A549 NSCLC): > 100 µM
- TGI (ACHN renal): > 100 µM
- TGI (CCRF-CEM leukemia): 68.5 µM
- TGI (COLO 205 colon): > 100 µM
- TGI (DLD-1 colon): > 100 µM
- TGI (DMS 114 small cell lung): > 100 µM
- TGI (DMS 273 small cell lung): 86.2 µM
- TGI (EKVX NSCLC): > 100 µM
- TGI (HCC-2998 colon): > 100 µM
- TGI (HCT-116 colon): > 100 µM
- TGI (HCT-15 colon): > 100 µM
- TGI (HL-60(TB) leukemia): 50.3 µM
- TGI (HOP-18 NSCLC): > 100 µM
- TGI (HOP-62 NSCLC): > 100 µM
- TGI (HOP-92 NSCLC): > 100 µM
- TGI (IGROV1 ovarian): 70.1 µM
- TGI (K-562 leukemia): > 100 µM
- TGI (KM12 colon): > 100 µM
- TGI (KM20L2 colon): > 100 µM
- TGI (LOX IMVI melanoma): > 100 µM
- TGI (LXFL 529 NSCLC): > 100 µM
- TGI (M14 melanoma): > 100 µM
- TGI (M19-MEL melanoma): > 100 µM
- TGI (MALME-3M melanoma): > 100 µM
- TGI (MOLT-4 leukemia): 45.5 µM
- TGI (NCI-H23 lung): > 100 µM
- TGI (NCI-H460 lung): > 100 µM
- TGI (NCI-H522 lung): 36.9 µM
- TGI (OVCAR-3 ovarian): > 100 µM
- TGI (OVCAR-4 ovarian): > 100 µM
- TGI (OVCAR-5 ovarian): > 100 µM
- TGI (OVCAR-8 ovarian): > 100 µM
- TGI (RPMI-8226 leukemia): 57.8 µM
- TGI (RXF 393 renal): > 100 µM
- TGI (RXF-631 renal): > 100 µM
- TGI (SF-268 CNS): > 100 µM
- TGI (SF-295 CNS): > 100 µM
- TGI (SF-539 CNS): > 100 µM
- TGI (SK-MEL-2 melanoma): > 100 µM
- TGI (SK-MEL-28 melanoma): 40.8 µM
- TGI (SK-OV-3 ovarian): > 100 µM
- TGI (SN12C renal): 11.9 µM
- TGI (SNB-19 CNS): > 100 µM
- TGI (SNB-75 CNS): > 100 µM
- TGI (SNB-78 CNS): > 100 µM
- TGI (SW-620 colon): > 100 µM
- TGI (TK-10 renal): > 100 µM
- TGI (U251 CNS): 42.7 µM
- TGI (UACC-257 melanoma): > 100 µM
- TGI (UACC-62 melanoma): 33.5 µM
- TGI (UO-31 renal): > 100 µM

Compound: O=c1c2ccccc2nc(/C=C(\O)c2ccccc2)n1-c1ccccc1Cl
- TGI (786-0 renal): > 100 µM
- TGI (A498 renal): > 100 µM
- TGI (A549 NSCLC): > 100 µM
- TGI (ACHN renal): > 100 µM
- TGI (CAKI-1 renal): > 100 µM
- TGI (CCRF-CEM leukemia): > 100 µM
- TGI (COLO 205 colon): > 100 µM
- TGI (DLD-1 colon): > 100 µM
- TGI (DMS 114 small cell lung): > 100 µM
- TGI (DMS 273 small cell lung): > 100 µM
- TGI (EKVX NSCLC): > 100 µM
- TGI (HCC-2998 colon): > 100 µM
- TGI (HCT-116 colon): > 100 µM
- TGI (HCT-15 colon): > 100 µM
- TGI (HL-60(TB) leukemia): > 100 µM
- TGI (HOP-18 NSCLC): > 100 µM
- TGI (HOP-62 NSCLC): > 100 µM
- TGI (HOP-92 NSCLC): > 100 µM
- TGI (HT29 colon): > 100 µM
- TGI (IGROV1 ovarian): > 100 µM
- TGI (K-562 leukemia): > 100 µM
- TGI (KM12 colon): > 100 µM
- TGI (KM20L2 colon): > 100 µM
- TGI (LOX IMVI melanoma): > 100 µM
- TGI (LXFL 529 NSCLC): > 100 µM
- TGI (M14 melanoma): > 100 µM
- TGI (M19-MEL melanoma): > 100 µM
- TGI (MALME-3M melanoma): > 100 µM
- TGI (MOLT-4 leukemia): > 100 µM
- TGI (NCI-H226 lung): > 100 µM
- TGI (NCI-H23 lung): > 100 µM
- TGI (NCI-H460 lung): > 100 µM
- TGI (NCI-H522 lung): > 100 µM
- TGI (OVCAR-3 ovarian): > 100 µM
- TGI (OVCAR-4 ovarian): > 100 µM
- TGI (OVCAR-5 ovarian): > 100 µM
- TGI (OVCAR-8 ovarian): > 100 µM
- TGI (RXF 393 renal): > 100 µM
- TGI (RXF-631 renal): > 100 µM
- TGI (SF-268 CNS): > 100 µM
- TGI (SF-295 CNS): > 100 µM
- TGI (SF-539 CNS): > 100 µM
- TGI (SK-MEL-2 melanoma): > 100 µM
- TGI (SK-MEL-28 melanoma): > 100 µM
- TGI (SK-MEL-5 melanoma): > 100 µM
- TGI (SK-OV-3 ovarian): > 100 µM
- TGI (SN12C renal): > 100 µM
- TGI (SNB-19 CNS): > 100 µM
- TGI (SNB-75 CNS): > 100 µM
- TGI (SNB-78 CNS): > 100 µM
- TGI (SR leukemia): > 100 µM
- TGI (SW-620 colon): > 100 µM
- TGI (TK-10 renal): > 100 µM
- TGI (U251 CNS): > 100 µM
- TGI (UACC-257 melanoma): > 100 µM
- TGI (UACC-62 melanoma): > 100 µM
- TGI (UO-31 renal): > 100 µM
